Measurements as given in patent publication US4623645A, “Substituted cephalosporin sulfoxides as anti-inflammatory and antidegenerative agents” (Merck & Co., Inc., priority 1983, dated 1986).

target: T1, Human Polymorphonuclear Leukocyte Elastase (Homo sapiens, UniProt P08246); assay: Inhibition of human polymorphonuclear leukocyte elastase via hydrolysis of N-t-Boc-alanyl-alanyl-prolyl-alanine-p-nitroanilide (Boc-AAPAN); format: biochemical; settings: 50% inhibition of the enzyme activity 2 minutes after zero time; crude human PMN extract, 0.2 mM Boc-AAPAN, pH 7.5; read-out: ED50 (the source's name) (converted)
T1 sequence (P08246 30-247 limits assumed): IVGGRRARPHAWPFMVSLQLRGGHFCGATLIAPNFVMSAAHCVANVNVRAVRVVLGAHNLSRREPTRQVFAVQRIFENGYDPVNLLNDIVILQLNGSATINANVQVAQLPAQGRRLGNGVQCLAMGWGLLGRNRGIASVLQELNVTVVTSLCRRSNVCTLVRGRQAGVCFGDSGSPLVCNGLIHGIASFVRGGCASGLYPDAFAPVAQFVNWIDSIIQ

IC50 | Structure (SMILES)
5.02 µM | CC(=O)OCC1=C(C(=O)OC(C)(C)C)N2C(=O)C(Cl)(Cl)C2[S+]([O-])C1 (stereo not shown) [7,7-dichloro / OtBu / H]
5.76 µM | CC(=O)OCC1=C(C(=O)OC(C)(C)C)N2C(=O)[C@H](F)[C@H]2[S+]([O-])C1 (stereo partly drawn) [F / OtBu / H, t-Butyl 3-acetyloxymethyl-7α-fluoro-8-oxo-5-thia-1-azabicyclo[4.2.0]oct-2-ene-2-carboxylate-5-oxide]
7.63 µM | CO[C@H]1C(=O)N2C(C(=O)OCc3ccccc3)=C(COC(C)=O)C[S+]([O-])[C@H]12 (stereo partly drawn) [OCH3 / OCH2 .phi. / H, Benzyl 3-acetyloxymethyl-7α-methoxy-8-oxo-5-thia-1-azabicyclo[4.2.0]oct-2-ene-2-carboxylate-5-oxide]
25.2 µM | COC(=O)C1=C(COC(C)=O)C[S+]([O-])C2C(OC)C(=O)N12 (stereo not shown) [OCH3 / OCH3 / H]
